Test results published in paper PMC10755728, “Inhibitors of the Elastase LasB for the Treatment of Pseudomonas aeruginosa Lung Infections” (ACS Central Science, 2023).
Like-named read-outs stand apart in the source and are kept apart here.

How the values were obtained:
LasB [1] = target: T1, LasB (Pseudomonas aeruginosa, UniProt Q02RJ6); assay: biochemical; format: biochemical
T1 construct: made in house

[2] = Metabolic stability in mouse liver S9 fraction; format: in vitro ADME
[3] = Metabolic stability in human liver S9 fraction; format: in vitro ADME
Plasma stability, mouse = format: in vitro ADME
MMP-1 = target: T2, MMP-1 (Homo sapiens, UniProt P03956); assay: MMP-1 inhibition assay; format: biochemical; settings: read-out: % inhibition MMP-1
T2 construct: purchased AnaSpec (Fremont, CA, USA)
T2 sequence (P03956 100-469): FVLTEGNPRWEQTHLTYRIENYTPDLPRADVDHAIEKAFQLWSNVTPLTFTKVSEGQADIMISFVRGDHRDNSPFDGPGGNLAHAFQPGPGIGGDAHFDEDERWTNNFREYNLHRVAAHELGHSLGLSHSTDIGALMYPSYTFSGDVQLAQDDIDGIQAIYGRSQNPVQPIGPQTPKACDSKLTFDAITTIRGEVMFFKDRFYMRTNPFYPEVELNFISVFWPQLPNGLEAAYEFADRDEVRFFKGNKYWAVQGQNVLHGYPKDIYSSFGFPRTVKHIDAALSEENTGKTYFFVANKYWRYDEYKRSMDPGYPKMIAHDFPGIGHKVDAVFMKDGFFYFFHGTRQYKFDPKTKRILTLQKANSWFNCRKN

MMP-2 = target: T3, MMP-2 (Homo sapiens, UniProt P08253); assay: MMP-2 inhibition assay; format: biochemical; settings: read-out: % inhibition MMP-2
T3 construct: purchased AnaSpec (Fremont, CA, USA)
T3 sequence (P08253 110-660): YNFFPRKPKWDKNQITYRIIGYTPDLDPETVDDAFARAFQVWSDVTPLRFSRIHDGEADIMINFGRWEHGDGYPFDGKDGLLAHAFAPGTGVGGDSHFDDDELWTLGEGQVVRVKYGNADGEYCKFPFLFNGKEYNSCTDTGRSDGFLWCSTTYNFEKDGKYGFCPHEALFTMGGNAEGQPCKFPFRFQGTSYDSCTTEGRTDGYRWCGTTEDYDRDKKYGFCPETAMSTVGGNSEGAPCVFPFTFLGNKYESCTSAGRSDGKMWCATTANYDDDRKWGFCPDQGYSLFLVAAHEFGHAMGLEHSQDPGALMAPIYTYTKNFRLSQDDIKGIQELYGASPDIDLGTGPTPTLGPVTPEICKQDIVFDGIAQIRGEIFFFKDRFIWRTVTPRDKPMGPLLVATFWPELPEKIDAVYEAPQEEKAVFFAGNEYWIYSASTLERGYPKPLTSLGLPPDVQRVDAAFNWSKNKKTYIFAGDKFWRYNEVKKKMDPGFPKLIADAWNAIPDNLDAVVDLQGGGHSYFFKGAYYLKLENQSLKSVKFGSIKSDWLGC

MMP-3 = target: T4, MMP-3 (Homo sapiens, UniProt P08254); assay: MMP-3 inhibition assay; format: biochemical; settings: read-out: % inhibition MMP-3
T4 construct: purchased AnaSpec (Fremont, CA, USA)
T4 sequence (P08254 100-477): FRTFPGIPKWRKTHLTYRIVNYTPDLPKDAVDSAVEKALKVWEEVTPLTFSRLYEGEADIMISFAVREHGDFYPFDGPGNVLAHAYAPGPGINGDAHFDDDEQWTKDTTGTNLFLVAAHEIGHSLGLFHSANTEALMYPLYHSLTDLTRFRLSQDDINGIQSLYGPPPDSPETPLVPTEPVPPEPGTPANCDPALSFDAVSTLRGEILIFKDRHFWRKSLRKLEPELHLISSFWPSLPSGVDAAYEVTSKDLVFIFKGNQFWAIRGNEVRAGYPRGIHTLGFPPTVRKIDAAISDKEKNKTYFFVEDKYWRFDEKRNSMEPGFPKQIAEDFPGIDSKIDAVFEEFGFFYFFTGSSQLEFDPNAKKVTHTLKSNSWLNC

TACE = target: T5, TACE (Homo sapiens, UniProt P78536); assay: TACE inhibitor screening kit; format: biochemical; settings: read-out: % inhibition TACE
T5 construct: purchased Sigma-Aldrich (Saint Louis, MO)
T5 sequence (P78536 215-824): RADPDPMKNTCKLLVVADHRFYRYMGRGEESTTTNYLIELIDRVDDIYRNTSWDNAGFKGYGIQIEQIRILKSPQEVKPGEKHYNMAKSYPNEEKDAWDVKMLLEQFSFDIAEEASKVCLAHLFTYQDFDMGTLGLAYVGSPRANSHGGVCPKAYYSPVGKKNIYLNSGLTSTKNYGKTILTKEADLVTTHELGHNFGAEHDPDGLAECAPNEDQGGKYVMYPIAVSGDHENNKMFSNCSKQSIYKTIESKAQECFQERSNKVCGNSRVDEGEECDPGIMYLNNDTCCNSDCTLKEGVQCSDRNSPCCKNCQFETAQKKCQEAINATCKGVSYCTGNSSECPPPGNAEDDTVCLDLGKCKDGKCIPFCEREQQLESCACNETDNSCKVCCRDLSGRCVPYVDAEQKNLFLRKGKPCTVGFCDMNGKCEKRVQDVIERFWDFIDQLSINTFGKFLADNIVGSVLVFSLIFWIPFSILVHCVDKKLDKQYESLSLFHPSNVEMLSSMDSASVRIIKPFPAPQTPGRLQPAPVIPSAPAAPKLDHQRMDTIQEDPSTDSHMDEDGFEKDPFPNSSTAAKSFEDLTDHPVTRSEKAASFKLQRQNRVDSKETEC

ColH-PD = ColH-PD (Hathewaya histolytica, UniProt Q46085); assay: biochemical; format: biochemical, Clostridium histolyticum; settings: read-out: % inhibition ColH-PD @1 µM
ColH-PD, sequence (Q46085 331-721 limits assumed): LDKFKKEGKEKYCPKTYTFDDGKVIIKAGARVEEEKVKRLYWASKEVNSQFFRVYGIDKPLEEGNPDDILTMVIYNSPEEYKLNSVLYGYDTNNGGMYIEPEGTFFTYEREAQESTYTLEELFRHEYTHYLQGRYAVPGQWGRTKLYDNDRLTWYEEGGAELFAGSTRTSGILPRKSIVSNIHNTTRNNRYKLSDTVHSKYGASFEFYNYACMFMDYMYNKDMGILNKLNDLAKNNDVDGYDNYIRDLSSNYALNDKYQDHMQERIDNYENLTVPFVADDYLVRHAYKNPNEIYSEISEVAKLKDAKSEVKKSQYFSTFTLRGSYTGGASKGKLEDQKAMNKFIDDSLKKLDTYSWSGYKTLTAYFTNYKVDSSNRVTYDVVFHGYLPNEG

[4] = Microsomal stability, mouse liver microsomes; format: in vitro ADME; settings: C57BL6, mouse, pooled liver microsomes
[5] = Microsomal stability, rat liver microsomes; format: in vitro ADME; settings: Wistar, pooled liver microsomes
[6] = Microsomal stability, minipig liver microsomes; format: in vitro ADME; settings: Göttingen, pooled liver microsomes
Plasma stability, rat = format: in vitro ADME; settings: Wistar, pooled plasma, species profiling, read-out: Plasma T1/2 Rat (Wistar)
[7] = Plasma stability, minipig; format: in vitro ADME; settings: Göttingen, pooled plasma, species profiling, read-out: Plasma T1/2 Minipig (Göttingen)
P. aeruginosa PA14 = assay: Bacterial growth inhibition assay; format: cell-based, Pseudomonas aeruginosa
Procedure: Bacterial growth inhibition assay. Assays regarding the determination of the MIC were
performed as described recently for P. aeruginosa PA14.58

in vivo = settings: mice, nebulization 10 mg/kg; for Cmax / Tmax: 10 mg/kg
Procedure: Up to 5 compounds were dosed per cassette.
anesthetized using ketamine 100 mg/kg and xylazine 10 mg/kg intraperitoneally.
time point) were euthanized at t= 0.5, 2 and 5 h post administration.
10 mg/kg using a Kent Scientific Aeroneb® nebulizer.
Blood was collected from the heart.
blood was collected into Eppendorf tubes coated with 0.5 M EDTA and immediately spun down
at 13,000 rpm for 10 min at 4 °C. The plasma was transferred into a new Eppendorf tube and then
stored at –80 °C until analysis. Then, a broncheoalveolar lavage was conducted using isotonic
sodium chloride solut ion. Lung, kidneys, and liver were aseptically removed and homogenized
using a Polytron tissue homogenizer (Kinematica) in isotonic sodium chloride solution.
samples were aliquoted into Eppendorf tubes and stored at –80 °C until analysis.
spontaneous urine was also collected. Bioanalytical sample preparation.
an AB Sciex QTrap6500+ mass spectrometer. First, a calibration curve was prepared by spiking
Caffeine was used as an internal standard.
min at 2,000 rpm on an Eppendorf MixMate® vortex mixer.
caffeine as internal standard for 5 min at 2000 rpm on an Eppendorf MixMate® vortex mixer.
Then samples (plasma and urine) were spun down at 1 3,000 rpm for 5 min. Supernatants were transferred to standard HPLC -glass vials.
tissue sample (calibration samples, QCs or PK samples) were extracted with 50 µL of methanol
and 1 µL caffeine (concent ration 1 µg/mL in methanol) for 5 min at 800 rpm on an Eppendorf MixMate® vortex mixer. Then samples (BALF, liver, kidney, lung) were spun down at 4,000 rpm
for 40 min at 4 °C. Supernatants were transferred to 96well V -bottom plates (Greiner).
conditions were as follows: column: Agilent Zorbax Eclipse Plus C18, 50x2.1 mm, 1.8 µm;
temperature: 30 °C; injection volume: 5 µL; flow rate: 700 µL/min; solvent A: water + 0.1%
Urea was used to enable calculation of
epithelial lining fluid (ELF) concentrations. Peak areas of each sample and of the corresponding
internal standard were analyzed using MultiQuant 3.0 software (AB Sciex).
respective sample were normalized to the internal standard peak area.
compound were used for qualification.
curve. The accuracy of the calibration curve was determined using QCs independently prepared
on different days. PK parameters were determined using a non-compartmental analysis with

LasB [8] = format: in vivo, mouse; settings: compared to the vehicle group; 4b 10 mg/kg TID, levofloxacin 25 mg/kg
3D lung organoids = assay: Lung organoid assay; format: cell-based, human
HepG2 = settings: human, 48 h, 100 µM
Procedure: Culturing of HepG2, A549 and HEK293 cells. The human hepatocellular carcinoma cell line HepG2, the lung adenocarcinoma cell line A549 and Human Embryonic (HEK) 293 cells were cultured in Dulbecco's Modified Eagle Medium (DMEM), containing 10% Fetal Bovine Serum
(FBS) and 1% penicillin-streptomycin mixture. Cells were maintained according to standard cell
Cytotoxicity assay. An MTT-based assay was employed to evaluate the viability of HepG2,
HEK293 and A549 cells after challenge with selected LasB inhibitors and performed as described

zebrafish embryos = assay: Zebrafish embryo toxicity
Procedure: Zebrafish embryo toxicity. The experiment was performed according to a procedure described
in the literature55 with minor modifications using zebrafish embryos of the AB wild-type line at 1
day post fertilization (dpf).
Zebrafish embryo toxicity.

[9] = system: Galleria mellonella larvae infected with wt PA14; assay: G. mellonella infection model
[10] = system: A549 cells treated with P. aeruginosa PAO1 and PA14 supernatants; assay: A549 cells challenged with P. aeruginosa culture supernatants
Procedure: Cells were maintained according to standard cell
PA14 csn production. The csn of wt PA14 and ΔlasB PA14 was produced as we previously
Validation of the effect of LasB inhibitors on A549 cells in vitro. The experiment was performed
as described previously.32 The Picrosirius red assay was performed by washing the csn-challenged
cells (± inhibitor) 3x with PBS followed by an incubation with Bouin solution (Sigma) at RT for
20 min. The cells were incubated with 0.1% Picrosirius red dye (ab150681) at RT for 2 h. Then,
they were washed once with 0.01 N HCl, and the matrix was dissolved in 0.01 N NaOH. The
absorption was measured at 570 nm using a PHERAstar plate reader (BMG Labtech). By dividing
the absorbance of each sample by the absorbance of the healthy sample, the relative collagen
quantity was determined. For each condition, the experiment was performed three times. To
determine the rescue of A549 cells treated with 5% wt PA14 csn using our compounds, the LasB
inhibitors were used at 2, 0.5, 0.1 and 0.05 µM. The compounds were incubated in F12K medium,
Cell detachment was then evaluated, and a Trypan Blue cell
cells/well were seeded into a flat bottom 96-well plate (Corning™ Costar™) and incubated at 37
were tested against 10% (v/v) P. aeruginosa PAO1 csn diluted in DMEM starting from 10 µM
and 20 µM, respectively. Compound was initially dissolved in DMSO, and a low final assay
concentration of 0.5% (v/v) was applied to minimize the proteolytic effect of DMSO on the
bacterial culture supernatant. In addition, cells were challenged with 10% (v/v) of ΔlasB PAO1 to

T1 sequence (Q02RJ6 198-498): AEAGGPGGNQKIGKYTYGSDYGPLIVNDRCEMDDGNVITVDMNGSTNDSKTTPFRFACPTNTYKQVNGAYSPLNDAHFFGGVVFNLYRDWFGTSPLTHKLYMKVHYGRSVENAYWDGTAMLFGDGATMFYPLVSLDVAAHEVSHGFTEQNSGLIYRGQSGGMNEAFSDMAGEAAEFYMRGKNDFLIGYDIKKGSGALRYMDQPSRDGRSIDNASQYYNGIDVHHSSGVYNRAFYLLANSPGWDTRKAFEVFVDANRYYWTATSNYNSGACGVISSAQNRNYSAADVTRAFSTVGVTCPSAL

With `CC(C)CC(C(=O)Nc1ccc(C(F)(F)F)cc1)P(=O)(O)O` (stereo not shown) [Compound 4b] the IC50 (LasB [1]; FRET-based assay, read-out: LasB IC50) was 0.0263 ± 0.0076 µM, the IC50 (LasB [1]; LasB IC50, FRET-based assay) was roughly 0.025 µM and the IC50 (LasB [1]; LasB IC50 in presence of 1% pulmonary surfactant, 1% pulmonary surfactant) was 0.076 ± 0.023 µM. The microsomal CLint at 1 μM [2] was less than 5.8 µL/min/mg, the microsomal CLint at 1 μM [3] was less than 5.8 µL/min/mg and the half-life (Plasma stability, mouse; C57BL6, mouse, pooled plasma, species profiling, read-out: Plasma T1/2 Mouse (C57BL6)) was greater than 4 h. For the same molecule, the half-life at 1 μM (Plasma stability, mouse; mouse plasma, read-out: Plasma T1/2 Mouse) was greater than 2.5 h, the inhibition at 100 µM (MMP-1) was 21 ± 1% and the inhibition at 100 µM (MMP-2) was 25 ± 4%. For the same molecule, the inhibition at 100 µM (MMP-3) was 29 ± 8%, the inhibition at 100 µM (TACE) was less than 10% and the inhibition at 1 µM (ColH-PD) was 14 ± 8%. The microsomal CLint [4] was less than 11.6 µL/min/mg, the microsomal CLint [5] was less than 11.6 µL/min/mg and the microsomal CLint [6] was less than 11.6 µL/min/mg. It also gave a half-life (Plasma stability, rat) greater than 4 h, a half-life [7] greater than 4 h and an inhibition at 100 µM (P. aeruginosa PA14; Pseudomonas aeruginosa, PA14, 100 µM compound concentration, read-out: Percent (%) growth inhibition of P. aeruginosa PA14) of less than 10%. The antibacterial activity (P. aeruginosa PA14; up to 100 μM) was “do not possess any antibacterial activity”, the Kp (in vivo; male, CD-1, mouse, ELF/plasma, inhaled, read-out: ELF/plasma ratio) was 6.12 and the Cmax (in vivo; male, CD-1, mouse, epithelial lining fluid (ELF), inhaled or intranasal, read-out: Cmax ELF) was 19900 ± 14000 ng/mL. It also gave a Tmax (in vivo; male, CD-1, mouse, epithelial lining fluid (ELF), inhaled or intranasal, read-out: Tmax ELF) of 0.58 ± 0.4 h, an AUC(0-t) (in vivo; male, CD-1, mouse, epithelial lining fluid (ELF), inhaled or intranasal, read-out: AUC 0-t ELF) of 49700 ± 16200 ng·h/mL and a CL/F (in vivo; male, CD-1, mouse, inhaled or intranasal, plasma) of 20.7 ± 2 mL/min/kg. It also gave a Tmax (in vivo; male, CD-1, mouse, lung, inhaled or intranasal, read-out: Tmax lung) of 0.33 ± 0.1 h, a Cmax (in vivo; male, CD-1, mouse, plasma, inhaled or intranasal, read-out: Cmax plasma) of 633 ± 59 ng/mL and a Tmax (in vivo; male, CD-1, mouse, plasma, inhaled or intranasal, read-out: Tmax plasma) of 4 ± 3.5 h. It also gave an MRT (in vivo; male, CD-1, mouse, plasma, inhaled or intranasal) of 6.8 ± 0.3 h, an AUC(0-t) (in vivo; male, CD-1, mouse, plasma, inhaled or intranasal, read-out: AUC 0-t plasma) of 8130 ng·h/mL and a half-life (in vivo; male, CD-1, mouse, plasma, inhaled or intranasal, read-out: t1/2 plasma (converted)) of 4 ± 0.3 h. For the same molecule, the “AUC 0-t lung” value (in vivo) was 249.0 ± 72.9 ng·h/g, the Cmax lung (in vivo) was 78.4 ± 15.9 ng/g and the “LasB protein levels in blood” value (LasB [8]) was “strong reduction”. For the same molecule, the “viability of lung organoids challenged with 5% PA14 csn” value (3D lung organoids; 5% PA14 csn, 48 h, MTT) was “improved in a dose-dependent manner”, the “toxic effects on nontreated lung organoids” value (3D lung organoids; concentrations tested up to 100 μM) was “did not have significant toxic effects” and the “% growth inhibition HepG2” value (HepG2) was 18 ± 11%. For the same molecule, the Survival rate (zebrafish embryos; 12.5 µM) was 100%, the Survival rate (zebrafish embryos; 25 µM) was 100% and the Screening observations (zebrafish embryos; 25 µM, 5 dpf) was 1 nsb. The Survival rate (zebrafish embryos; 50 µM) was 100%, the Screening observations (zebrafish embryos; 50 µM, 5 dpf) was 2 nsb and the Survival rate (zebrafish embryos; 100 μM) was 100%. For the same molecule, the Screening observations (zebrafish embryos; 100 µM, 3 dpf) was 1 edema, the Screening observations (zebrafish embryos; 100 µM, 4 dpf) was 1 edema and the Screening observations (zebrafish embryos; 100 µM, 5 dpf) was 1 nsb, 1 edema. The “survival of larvae infected with wt PA14” value ([9]; 1 nmol 4b, 10.7 nmol tobramycin, or both, 17% in the wild type) was 33%, the “survival in the PBS treated groups (not infected)” value ([9]; PBS with 4b, tobramycin or combination of both) was 100% and the “reduction of cleavage of collagen” value ([10]; A549 cells, 15% (v/v) wt PA14 csn, 3.15 μM) was 20%. For the same molecule, the “LasB-related cytotoxicity in csn-treated A549 cells” value ([10]; PAO1 or PA14 csn) was “dose-dependent reduction of LasB-related cytotoxicity”.
